The record followed here is PMC9783573, “Introduction of a SiFA Moiety into the D-Glutamate Chain of DOTA-PP-F11N Results in Radiohybrid-Based CCK-2R-Targeted Compounds with Improved Pharmacokinetics In Vivo” (Pharmaceuticals, 2022).

Where two headings read alike, the source gives them in different places. Non-standard residues stand in square brackets, D forms with d. Residues, ends and D or L forms follow the SMILES beside them. *: point of attachment. X1 = O=C(O)CN1CCN(CC(=O)O)CCN([C@H](CCC(=O)*)C(=O)O)CCN(CC(=O)O)CC1; Benzoyl(4-SiFtBu2) = CC(C)(C)[Si](F)(c1ccc(C(=O)*)cc1)C(C)(C)C; Nle = CCCC[C@H](N)C(=O)O; dDap = NC[C@@H](N)C(=O)O

The target of the assay is T1, CCK-2R (Rattus norvegicus, UniProt P30553).
T1 construct: CCK-2R expressing rat pancreatic cancer cells AR42J (CLS GmbH, Eppelheim,; host or cells: AR42J rat pancreatic cancer cells
T1 sequence (P30553 1-452): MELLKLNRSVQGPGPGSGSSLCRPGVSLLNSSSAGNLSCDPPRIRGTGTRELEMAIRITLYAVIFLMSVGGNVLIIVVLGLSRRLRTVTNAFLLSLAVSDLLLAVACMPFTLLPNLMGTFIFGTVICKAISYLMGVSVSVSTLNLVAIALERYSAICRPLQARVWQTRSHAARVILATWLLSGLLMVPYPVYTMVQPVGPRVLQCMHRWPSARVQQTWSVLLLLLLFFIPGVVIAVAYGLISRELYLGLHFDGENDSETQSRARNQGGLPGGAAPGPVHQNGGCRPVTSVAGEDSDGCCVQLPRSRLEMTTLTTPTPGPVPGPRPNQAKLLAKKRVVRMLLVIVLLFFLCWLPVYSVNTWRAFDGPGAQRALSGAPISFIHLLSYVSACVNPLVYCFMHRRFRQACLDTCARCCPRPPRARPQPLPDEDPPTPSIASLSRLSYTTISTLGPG
Nature of the assay: Competitive binding (IC50) on AR42J cells with [177Lu]Lu-DOTA-PP-F11N as radiolabelled reference. The note with it: natLu-labelled peptide, AR42J cells 2.0 × 10^5/well, 3 h, 37 °C, [177Lu]Lu-DOTA-PP-F11N 0.3 pmol/well. How it is done:
Detailed description of all cell-based experiments is provided in the Supplementary Materials. In brief, competitive binding studies were conducted on AR42J cells (2.0 × 10^5 cells per 1 mL/well) via incubation at 37 °C for 3 h using [^177Lu]Lu-DOTA-PP-F11N (0.3 pmol) as a radiolabelled reference (n = 3).
Cell Culture. CCK-2R expressing rat pancreatic cancer cells AR42J (CLS GmbH, Eppelheim, Germany) were cultivated in monolayers in CELLSTAR ® cell culture flasks acquired from Greiner Bio-One GmbH (Frickenhausen, Germany) at 37 °C in a humidified atmosphere (5% CO2) using a HERAcell 150i-Incubator (Thermo Fisher Scientific Inc., Waltham, United States). As nutrient medium RPMI 1640 medium, supplemented with 5 mM L-Gln 5 mL non-essential amino acids (100×) and 10% FCS, was used. Furthermore, a Dulbecco’s PBS solution with 0.1% EDTA (v/v) was applied to detach the cells for cell passaging. The detached cells were counted using a Neubauer hemocytometer ( Paul Marienfeld, Lauda-Königshofen, Germany). In addition, all operations under sterile conditions were accomplished using a MSC-Advantage safety workbench (Thermo Fisher Scientific Inc., Waltham, United States).
Determination of IC50. AR42J cells (2.0 × 10^5 cells/well) were seeded into 24-well plates 24 ± 2 h prior to testing, using 1 mL of nutrient medium (RPMI 1640, 5 mM L-Gln, 5 mL non-essential amino acids (100×), 10% FCS). Cells were incubated at 37 °C in a humidified atmosphere (5% CO2).
After removal of the medium, each well was washed with 500 μL PBS. For the cell-based assay, 200 μL of nutrient medium (+5% BSA), [177Lu]Lu-DOTA-PP-F11N (25 μL, 0.3 pmol) as a radiolabeled reference and 25 μL of the peptide of interest in increasing concentrations (10−10 to 10−4 M) in triplicate were added to the cells. Thereafter, the assay was incubated for 3 h at 37 °C and thereafter, the supernatant was collected. The cells were washed with 300 μL PBS and the collected supernatant fractions were unified.
After lysis of the cells with NaOH (300 μL, 1 N) for 15 min, the respective wells were washed with NaOH (300 μL, 1 N) and both fractions were unified. The radioactivity of both, the supernatant and the lysed fractions was quantified using a γ-counter (PerkinElmer Inc., Waltham, United States ). The obtained data were evaluated via the GraphPad PRISM software ( GraphPad Software Inc., La Jolla, United States), which calculates the halfmaximal inhibitory concentration ( IC50) of the peptides. […]

The IC50 is the concentration needed to halve the response being measured. `CCCC[C@H](NC(=O)[C@H](Cc1c[nH]c2ccccc12)NC(=O)CNC(=O)[C@H](Cc1ccc(O)cc1)NC(=O)[C@H](C)NC(=O)[C@@H](CCC(=O)O)NC(=O)[C@@H](CCC(=O)O)NC(=O)[C@@H](CCC(=O)O)NC(=O)[C@@H](CCC(=O)O)NC(=O)[C@@H](CCC(=O)O)NC(=O)[C@@H](CCC(=O)O)NC(=O)[C@@H](CCC(=O)O)NC(=O)[C@@H](CCC(=O)O)NC(=O)[C@@H](CNC(=O)c1ccc([Si](F)(C(C)(C)C)C(C)(C)C)cc1)NC(=O)CC[C@H](C(=O)O)N1CCN(CC(=O)O)CCN(CC(=O)O)CCN(CC(=O)O)CC1)C(=O)N[C@@H](CC(=O)O)C(=O)N[C@@H](Cc1ccccc1)C(N)=O` [[nat/177Lu]Lu-(R)-DOTAGA-rhCCK-9, metal not drawn] (X1-[dDap](Benzoyl(4-SiFtBu2))[dE][dE][dE][dE][dE][dE][dE][dE]AYGW[Nle]DF-NH2) registered an IC50 of 55.3 ± 7.8 nM. `CCCC[C@H](NC(=O)[C@H](Cc1c[nH]c2ccccc12)NC(=O)CNC(=O)[C@H](Cc1ccc(O)cc1)NC(=O)[C@H](C)NC(=O)CC[C@@H](NC(=O)CC[C@@H](NC(=O)CC[C@@H](NC(=O)CC[C@@H](NC(=O)CC[C@@H](NC(=O)CC[C@@H](NC(=O)[C@@H](CNC(=O)c1ccc([Si](F)(C(C)(C)C)C(C)(C)C)cc1)NC(=O)CC[C@H](C(=O)O)N1CCN(CC(=O)O)CCN(CC(=O)O)CCN(CC(=O)O)CC1)C(=O)O)C(=O)O)C(=O)O)C(=O)O)C(=O)O)C(=O)O)C(=O)N[C@@H](CC(=O)O)C(=O)N[C@@H](Cc1ccccc1)C(N)=O` [[nat/177Lu]Lu-(R)-DOTAGA-rhCCK-16, metal not drawn] registered an IC50 of 20.4 ± 2.7 nM. On to `CSCC[C@H](NC(=O)[C@H](Cc1c[nH]c2ccccc12)NC(=O)CNC(=O)[C@H](Cc1ccc(O)cc1)NC(=O)[C@H](C)NC(=O)[C@@H](CCC(=O)O)NC(=O)[C@@H](CCC(=O)O)NC(=O)[C@@H](CCC(=O)O)NC(=O)[C@@H](CCC(=O)O)NC(=O)[C@@H](CCC(=O)O)NC(=O)[C@@H](CCC(=O)O)NC(=O)CN1CCN(CC(=O)O)CCN(CC(=O)O)CCN(CC(=O)O)CC1)C(=O)N[C@@H](CC(=O)O)C(=O)N[C@@H](Cc1ccccc1)C(N)=O` [[nat/177Lu]Lu-CP04, metal not drawn, reference compound], for which the IC50 (listed as [^natLu]Lu-CP04, read-out: IC50) was 11 to 13 nM.

As for `CCCC[C@H](NC(=O)[C@H](Cc1c[nH]c2ccccc12)NC(=O)CNC(=O)[C@H](Cc1ccc(O)cc1)NC(=O)[C@H](C)NC(=O)[C@@H](CCC(=O)O)NC(=O)[C@@H](CCC(=O)O)NC(=O)[C@@H](CCC(=O)O)NC(=O)[C@@H](CCC(=O)O)NC(=O)[C@@H](CCC(=O)O)NC(=O)[C@@H](CCC(=O)O)NC(=O)CN1CCN(CC(=O)O)CCN(CC(=O)O)CCN(CC(=O)O)CC1)C(=O)N[C@@H](CC(=O)O)C(=O)N[C@@H](Cc1ccccc1)C(N)=O` [[nat/177Lu]Lu-DOTA-PP-F11N, metal not drawn, reference compound], the IC50 (read-out: IC50) fell in the range of 11 to 13 nM.
